The target in the test is T1, rat mGlu2 (Rattus norvegicus, UniProt P31421).
T1 construct: expressed in transfected cells
As to the kind of experiment: mGlu2 Ca2+ flux assay. The format is cell-based. The following applies: for IC50: Gα15 HEK293 cells stably expressing rat mGlu2, glutamate EC80 addition, read-out: rat mGlu2 IC50; for remaining activity at 30 µM: amplitude of response in the presence of 30 μM test compound as percentage of maximal response to glutamate, read-out: rat mGlu2 Glu max (%). The method, then: Gα15 HEK293 cells stably expressing rat mGlu2 were plated in black-walled, clear-bottomed, poly-D-lysine coated 384-well plates in 20 μL of assay medium (DMEM containing 10% dialyzed FBS, 20 mM HEPES, and 1 mM sodium pyruvate) at a density of 12K cells/well. The cells were grown overnight at 37° C. in the presence of 5% CO2. The next day, medium was removed and the cells incubated with 20 μL of 2.3 μM Fluo-4, AM prepared as a 2.3 mM stock in DMSO and mixed in a 1:1 ratio with 10% (w/v) pluronic acid F-127 and diluted in assay buffer (Hank's balanced salt solution, 20 mM HEPES, and 2.5 mM probenecid) for 45 minutes at 37° C. Dye was removed, 20 μL of assay buffer was added, and the plate was incubated for 5 minutes at room temperature.
Ca^2+ flux was measured using the Functional Drug Screening System (FDSS7000, Hamamatsu, Japan). After establishment of a fluorescence baseline for about 3 seconds, the compounds of the present invention were added to the cells, and the response in cells was measured. 2.3 minutes later an EC20 concentration of the mGlu2 receptor agonist glutamate was added to the cells, and the response of the cells was measured for 1.9 minutes; an EC80 concentration of agonist was added and readings taken for an additional 1.7 minutes. All test compounds were dissolved and diluted to a concentration of 10 mM in 100% DMSO. Compounds were then serially diluted 1:3 in DMSO into 10 point concentration response curves, transferred to daughter plates, and further diluted into assay buffer to a 2× stock. Calcium fluorescence measures were recorded as fold over basal fluorescence; raw data was then normalized to the maximal response to glutamate. Antagonism of the agonist response of the mGlu2 receptor in the present invention was observed as a decrease in response to nearly maximal concentrations of glutamate in the presence of compound compared to the response to glutamate in the absence of compound.
The raw data file containing all time points was used as the data source in the analysis template. This was saved by the FDSS as a tab-delimited text file. Data were normalized using a static ratio function (F/F0) for each measurement of the total 360 values per well divided by each well's initial value. Data were then reduced to peak amplitudes (Max−Initial Min) using a time range that starts approximately 3 seconds prior to the glutamate EC80 addition and continues for approximately 90 seconds. This is sufficient time to capture the peak amplitude of the cellular calcium response. Individual amplitudes were expressed as % ECMax by multiplying each amplitude by 100 and then dividing the product by the mean of the amplitudes derived from the glutamate ECMax-treated wells. IC50 values for test compounds were generated by fitting the normalized values versus the log of the test compound concentration (in mol/L) using a 4 parameter logistic equation where none of the parameters were fixed. Each of the three values collected at each concentration of test compound were weighted evenly.
For NAMs, potency (IC50) and maximum response (% Glu Max), i.e. the amplitude of response in the presence of 30 μM test compound as a percentage of the maximal response to glutamate, are reported. […] Compounds with no measurable activity are designated as “>30,000 nM” since the top concentration of compound tested in the assay is 30 μM.

Structures are written as SMILES.

What is called IC50 is the concentration that gives 50% inhibition.

T1 sequence (P31421 19-872): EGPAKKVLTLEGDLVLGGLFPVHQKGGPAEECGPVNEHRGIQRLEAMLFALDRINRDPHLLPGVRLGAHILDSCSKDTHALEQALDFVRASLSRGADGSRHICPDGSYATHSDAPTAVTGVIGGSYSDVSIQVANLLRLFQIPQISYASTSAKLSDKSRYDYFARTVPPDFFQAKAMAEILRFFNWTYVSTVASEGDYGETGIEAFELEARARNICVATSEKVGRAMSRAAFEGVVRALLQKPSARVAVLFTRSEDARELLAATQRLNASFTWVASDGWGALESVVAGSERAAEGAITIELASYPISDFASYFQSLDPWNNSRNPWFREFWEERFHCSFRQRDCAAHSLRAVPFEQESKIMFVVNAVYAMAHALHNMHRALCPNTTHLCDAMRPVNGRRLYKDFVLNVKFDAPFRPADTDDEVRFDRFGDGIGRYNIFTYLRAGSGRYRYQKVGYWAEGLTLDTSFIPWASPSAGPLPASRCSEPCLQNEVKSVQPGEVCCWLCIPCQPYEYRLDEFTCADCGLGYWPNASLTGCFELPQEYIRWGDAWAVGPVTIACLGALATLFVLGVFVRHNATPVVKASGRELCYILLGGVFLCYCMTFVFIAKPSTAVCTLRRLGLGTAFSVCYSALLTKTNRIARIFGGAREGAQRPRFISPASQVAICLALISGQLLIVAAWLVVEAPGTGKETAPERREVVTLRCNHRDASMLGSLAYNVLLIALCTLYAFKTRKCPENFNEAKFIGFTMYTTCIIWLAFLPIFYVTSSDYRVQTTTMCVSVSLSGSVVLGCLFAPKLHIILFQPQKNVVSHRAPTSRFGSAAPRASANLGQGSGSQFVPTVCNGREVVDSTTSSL

On to `NC(=O)c1cn(-c2ccc(F)cc2)c2ccc(N3CCC(N4CCOCC4)C3)cc2c1=O` (stereo not drawn) [Compound 50, 1-(4-fluorophenyl)-6-(3-morpholinopyrrolidin-1-yl)-4-oxo-1,4-dihydroquinoline-3-carboxamide], for which the IC50 turned out to be 1.32 µM and the remaining activity at 30 µM is 1.08%.
Turning to `CN(Cc1cccnc1)c1cc(F)c2c(c1)c(=O)c(C(N)=O)cn2-c1ccc(F)cc1` [Compound 51, 8-fluoro-1-(4-fluorophenyl)-6-(methyl(pyridin-3-ylmethyl)amino)-4-oxo-1,4-dihydroquinoline-3-carboxamide], the IC50 was determined as 1.18 µM and the remaining activity at 30 µM turned out to be 1.39%.
As for `CN(Cc1cccnc1)c1cc2c(=O)c(C(N)=O)cn(-c3ccc(F)cc3)c2cc1F` [Compound 52, 7-Fluoro-1-(4-fluorophenyl)-6-(methyl(pyridin-3-ylmethyl)amino)-4-oxo-1,4-dihydroquinoline-3-carboxamide], the concentration for half-maximal inhibition (IC50) came out at 0.669 µM and the remaining activity at 30 µM was 2.26%.
Taken in the same sequence, the figures for `NC(=O)c1cn(-c2ccc(F)cc2)c2ccc(NCC3CCOCC3)cc2c1=O` [Compound 53, 1-(4-fluorophenyl)-4-oxo-6-(((tetrahydro-2H-pyran-4-yl)methyl)amino)-1,4-dihydroquinoline-3-carboxamide] were 0.659 µM and 1.04%.
As for `Cc1ncc(CCc2cc3c(=O)c(C(N)=O)cn(-c4ccc(F)cc4)c3cc2F)cn1` [Compound 54, 7-fluoro-1-(4-fluorophenyl)-6-(2-(2-methylpyrimidin-5-yl)ethyl)-4-oxo-1,4-dihydroquinoline-3-carboxamide], the IC50 was 2.7 µM and the remaining activity at 30 µM worked out at 1.02%.
For the compound `Cc1ccc(Oc2ccc3c(c2)c(=O)c(C(N)=O)cn3-c2ccc(F)cc2)cn1` [Compound 55, 1-(4-Fluorophenyl)-6-((6-methylpyridin-3-yl)oxy)-4-oxo-1,4-dihydroquinoline-3-carboxamide], the IC50 was 1.71 µM and the remaining activity at 30 µM amounted to 1.96%.
Regarding `NC(=O)c1cn(-c2ccc(F)cc2)c2ccc(Oc3cccnc3)cc2c1=O` [Compound 56, 1-(4-fluorophenyl)-4-oxo-6-(pyridin-3-yloxy)-1,4-dihydroquinoline-3-carboxamide], the IC50 was 0.882 ± 0.16 µM and the remaining activity at 30 µM was 1.84 ± 0.47%.
For `Cc1ncc(Oc2ccc3c(c2)c(=O)c(C(N)=O)cn3-c2ccc(F)cc2)cn1` [Compound 57, 1-(4-fluorophenyl)-6-((2-methylpyrimidin-5-yl)oxy)-4-oxo-1,4-dihydroquinoline-3-carboxamide], in that order: 4.48 µM and 15.7%.
For `NC(=O)c1cn(-c2ccc(F)cc2)c2ccc(Oc3ccc(F)nc3)cc2c1=O` [Compound 58, 1-(4-fluorophenyl)-6-((6-fluoropyridin-3-yl)oxy)-4-oxo-1,4-dihydroquinoline-3-carboxamide], in that order: 1.36 µM and 1.18%.
Taken in the same sequence, the figures for `NC(=O)c1cn(-c2ccc(F)cc2)c2ccc(Oc3cncc(F)c3)cc2c1=O` [Compound 59, 1-(4-fluorophenyl)-6-((5-fluoropyridin-3-yl)oxy)-4-oxo-1,4-dihydroquinoline-3-carboxamide] were 2.11 µM and 0.44%.
`NC(=O)c1cn(-c2ccc(F)cc2)c2ccc(-c3cccnc3)cc2c1=O` [Compound 60, 1-(4-fluorophenyl)-4-oxo-6-(pyridin-3-yl)-1,4-dihydroquinoline-3-carboxamide]: the IC50 was 0.277 µM and the remaining activity at 30 µM stood at 1.33%.
For `Cn1cc(-c2ccc3c(c2)c(=O)c(C(N)=O)cn3-c2ccc(F)cc2)cn1` [Compound 61, 1-(4-fluorophenyl)-6-(1-methyl-1H-pyrazol-4-yl)-4-oxo-1,4-dihydroquinoline-3-carboxamide], in that order: 0.544 µM and 0.41%.

The values above are taken from patent publication US9382208B1, “Negative allosteric modulators of metabotropic glutamate receptor 2” (Vanderbilt University, priority 2015, dated 2016).
